# Test results from US20040259889A1, “Methods of treating pulmonary disease” (priority 2001, published 2004).
# What was measured:
# [1] = tested on: pacing heart failure preparations (Yorkshire pigs); assay: Systemic and pulmonary hemodynamics after A1 adenosine receptor antagonist infusion in pacing heart failure pigs (Example 1); assay type: in vivo, pig
# Excerpt: Nineteen Yorkshire pigs (20-25 kg, male Hambone Farms, SC) were instrumented in order to induce pacing cardiac heart failure as described in Tomita et al., Circulation, 83, pp. 635-644 (1991). Briefly, under isoflurane anesthesia (3% in 1.5 L/min of oxygen) and through a left thoracotomy, a shielded stimulated electrode was sutured onto the left atrium, connected to a modified programmable pacemaker (8329 Medtronic, Inc., Minneapolis, Minn.) and buried in a subcutaneous pocket. Ten to fourteen days following recovery from the surgical procedure, a baseline echocardiographic study was performed and pacing initiate at 240 beats/min for 3 weeks. An additional group of 7 normal control animals were cared for in identical fashion with the exception of the pacing protocol. At the conclusion of the 3-week pacing period, the pacemakers were de-activated and echocardiographic studies were performed. For these studies, the animals were brought to the laboratory and the pacemakers were deactivated. Two-dimensional and M-mode echocardiographic studies (ATL Ulmark VI, 2.25 MHz transducer, Bothell, Wash.) were used to image the left ventricle from a right parasternal approach. Following the echocardiographic study, the animals were prepared for acute instrumentation and initiation of the study protocol.
# The pigs were anesthetized with intravenous boluses of sufentanyl 2.0 μg/kg, etomidate 0.3 mg/kg, and vecuronium 10 mg, after which a tracheostomy was performed. A tubocurarine 12 mg intravenous bolus was administered after obtaining arterial pressure. Anesthesia was maintained throughout the procedure by continuous intravenous infusions of morphine sulfate 3 mg/kg/hr and tubocurarine 2 mg/hr. Etomidate 0.1 mg/kg intravenous was also given at 30 minute intervals. A maintenance infusion of 10 ml/kg/hr of lactated Ringer's solution was maintained throughout the protocol. […] A multi-lumened thermodilution catheter (7.5 Fr, Baxter Healthcare Corp., Irvine, Calif.) was positioned in a pulmonary artery via the right external jugular vein and a large bore catheter (7 Fr) was placed in the left external jugular vein for fluid administration. The carotid artery was exposed and cannulated, and the catheter (7 Fr) was advanced to the aortic root for aortic blood pressure measurements and blood samplings.
# Following instrumentation and a 15-minute stabilization period, baseline hemodynamics were recorded and digitized. Thermodilution derived cardiac output and ejection fraction were obtained from the pulmonary artery catheter in triplicate. All measurements were simultaneously recorded with the ventilator temporarily suspended in order to prevent respiratory artifact the recordings. An arterial sample was drawn for electrolyte assays. Pulmonary and systemic vascular resistances were computed from the thermodilution cardiac output and pressure measurements using standard formulae.
# Following instrumentation and collection of baseline measurements, the animals were randomly assigned to receive either vehicle infusion (polyethylene glycol, 3 ml intravenous, n=10) or the A1 adenosine receptor antagonist (1 mg/kg 1,8-(3-Oxa-tricyclo[3.2.1.0^2,4]oct-6-yl)-1,3-dipropyl-3,7-dihydro-purine-2,6-dione (BG9719); n=9). Following infusion of vehicle or BG9719, the hemodynamic measurements described in the previous section were repeated at 10, 30, 60, 90, 120 minutes post infusion.
# Changes in hemodynamics were initially examined between the control and A1 adenosine receptor antagonist (BG9719) groups by ANOVA. Comparisons between these baseline values following randomization were performed by a 2-way ANOVA. Comparisons of these parameters following infusion were compared using a multi-way ANOVA for repeated measures. Pair-wise comparisons were performed with a Bonferroni adjusted t-test. All statistical analyses were performed using statistical software programs (BMDP Statistical Software Inc. University of California Press, Los Angeles, Calif.).
# [2] = tested on: pacing HF preparations (Yorkshire pigs); assay: Systemic and pulmonary hemodynamics after A1 adenosine receptor antagonist infusion in pacing heart failure pigs (Example 2); assay type: in vivo, pig
# Experimental: Four Yorkshire pigs (25-30 kg, male, Hambone Farms, SC) were implanted with a pacemaker (8329, Medtronic, Inc., Minneapolis, Minn.) in order to induce pacing CHF as described above. Ten to 14 days following recovery from the surgical procedure, a baseline echocardiographic study (ATL Ultramark VI, 2.25 MHz transducer, Bothell, Wash.) was performed and pacing initiated at 240 beats/min for 3 weeks. An additional group of 6 normal control animals were cared for in identical fashion with the exception of the pacing protocol. At the conclusion of the 3-week pacing period, the pacemakers were deactivated and echocardiographic studies were used to image the LV from a right parasternal approach. Following the echocardiographic study, the animals were prepared for acute instrumentation and initiation of the study protocol.
# The pigs were anesthetized (i.v. sufentanyl […], etomidate 0.3 mg/kg) and paralyzed (vecuronium 10 mg, tubocurarine 12 mg). A maintenance infusion of 10 ml/kg/hr of lactated ringer's solution was maintained throughout the protocol. A thermodilution catheter (7.5 Fr, Baxter Healthcare Corp., Irvine, Calif.) was positioned in the pulmonary artery via the right external jugular vein and a large bore catheter (7 Fr) was placed in the left external jugular vein for fluid administration. The carotid artery was exposed and cannulated, and the catheter (7 Fr) was advanced to the aortic root for aortic blood pressure measurements and blood sampling drained.
# Following instrumentation and a 10-minute stabilization period, baseline hemodynamics were recorded and digitized. Thermodilution derived cardiac output and ejection fraction were obtained from the pulmonary artery catheter in triplicate. Pulmonary and systemic vascular resistances were computed from the pressure measurements and cardiac output and using standard formulae.
# Following instrumentation and collection of baseline measurements, the A1 receptor antagonist (3-[4-(2,6-Dioxo-1,3-dipropyl-2,3,6,7-tetrahydro-1H-purin-8-yl)-bicyclo[2.2.2]oct-1-yl]-propionic acid (BG9928), 1 mg/kg) was infused intravenously. Hemodynamic measurements described in the previous section were repeated at 10, 20, 30, 60, 90, and 120 minutes post infusion.
# Comparisons of basal hemodynamics between the control and HF groups were performed using Student's t-test. Time-dependent changes in hemodynamics following A1 block infusion were examined by ANOVA. Pair wise comparisons were performed with a Bonferroni adjusted t-test. All statistical analyses were performed using statistical software programs (BMDP Statistical Software Inc. University of California Press, Los Angeles, Calif.). Results are presented as mean ± standard error of the mean (SEM). Values of p<0.05 were considered to be statistically significant.
# [3] = BG9719 1 mg/kg infusion, 10-120 min post infusion
# [4] = BG9928 1 mg/kg intravenous infusion
Structure (SMILES),"pulmonary vascular resistance (PVR), decrease from baseline ([1]; 1 mg/kg intravenous infusion, 10 min post treatment, then returned to baseline levels, p<0.05) [%]","pulmonary artery pressure (PAP), change in words ([1]; 1 mg/kg, 30 minutes after treatment, remained depressed)","pulmonary capillary wedge pressure (PCWP), change in words ([1]; 1 mg/kg, 90 minutes after treatment)","pulmonary capillary wedge pressure (PCWP) ([1]; 1 mg/kg, 90 minutes post treatment, p<0.05, mean±SEM) [mmHg]","mean pulmonary artery pressure after treatment ([1]; 1 mg/kg, from 30 min post treatment, baseline 30±1 mmHg, p<0.05, mean±SEM) [mmHg]","systemic vascular resistance, change from baseline ([1]; BG9719 1 mg/kg infusion)","cardiac output (CO), change from baseline [1, 3]","heart rate (HR), change from baseline [1, 3]","mean arterial pressure (MAP), change from baseline [1, 3]","systemic vascular resistance (SVR), change from baseline ([2]; 1 mg/kg intravenous infusion, 10 min post treatment)","pulmonary vascular resistance (PVR), fall from baseline ([2]; 1 mg/kg intravenous infusion, 10 min post treatment, p<0.05) [%]","cardiac output, change from baseline [2, 4]","heart rate, change from baseline [2, 4]","mean arterial pressure, change from baseline [2, 4]"
"CCCn1c(=O)c2[nH]c(C3CC4CC3C3OC43)nc2n(CCC)c1=O (centres unmarked) [BG9719, 8-(3-Oxa-tricyclo[3.2.1.0^2,4]oct-6-yl)-1,3-dipropyl-3,7-dihydro-purine-2,6-dione]",38,decreased,decreased,9 ± 2,23±3,No change,No change,No change,No change,–,–,–,–,–
"CCCn1c(=O)c2[nH]c(C34CCC(CCC(=O)O)(CC3)CC4)nc2n(CCC)c1=O [BG9928, 3-[4-(2,6-Dioxo-1,3-dipropyl-2,3,6,7-tetrahydro-1H-purin-8-yl)-bicyclo[2.2.2]oct-1-yl]-propionic acid]",–,–,–,–,–,–,–,–,–,no change,18,No change,No change,No change
